The values below come from patent US9840478B2 (MERCK SHARP & DOHME CORP., priority 2013, dated 2017).

SMILES strings stand for the structures.

The experiment concerns HIV-1 (H9IIIB strain). As to the kind of experiment: Cell-based HIV infection assay using a reporter (Cell-Based), MT4-GFP cells. Particulars: Human immunodeficiency virus 1, MT4-GFP cells infected with HIV-1 H9IIIB; 50% normal human serum; mean of at least two independent experiments; read-out: Cell-based IP. The method in brief: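 IC50 from 4-parameter dose-response of % viral growth inhibition, using the 48 h/24 h infected-cell ratio scaled between DMSO and a protease/integrase/NNRTI triple-drug control. Assay used MT4 cells with HIV-LTR-GFP reporter, pre-infected 24 h with HIV-1 H9IIIB, in 50% normal human serum.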

`COC(=O)N[C@H](C(=O)Nc1cccc(F)c1CC[C@H]1CNC[C@@H](C)N1S(=O)(=O)C1CC1)[C@@H](c1ccc(Cl)cc1)C(C)C` [Example 145, (βR)-4-chloro-N-(2-{2-[(2S,6R)-1-(cyclopropylsulfonyl)-6-methylpiperazin-2-yl]ethyl}-3-fluorophenyl)-Nα-(methoxycarbonyl)-β-(1-methylethyl)-L-phenylalaninamide]: the IC50 came out at 170 nM.

`COC(=O)N[C@H](C(=O)Nc1cccc(F)c1CC[C@H]1CNC[C@@H](C)N1S(C)(=O)=O)[C@@H](c1ccc(F)cc1)C1CCOCC1` [Example 146, (βR)-4-fluoro-N-(3-fluoro-2-{2-[(2S,6R)-6-methyl-1-(methylsulfonyl)piperazin-2-yl]ethyl}phenyl)-Nα-(methoxycarbonyl)-β-(tetrahydro-2H-pyran-4-yl)-L-phenylalaninamide]: the IC50 came to 72 nM.

In the case of `CCOC(=O)N[C@H](C(=O)Nc1cccc(F)c1CC[C@H]1CNC[C@@H](C)N1S(=O)(=O)c1ccccc1)[C@@H](c1ccc(Cl)cc1)C1CCOCC1` [Example 148, (βR)-4-chloro-Nα-(ethoxycarbonyl)-N-(3-fluoro-2-{2-[(2S,6R)-6-methyl-1-(phenylsulfonyl)piperazin-2-yl]ethyl}phenyl)-β-(tetrahydro-2H-pyran-4-yl)-L-phenylalaninamide], the IC50 worked out at 8.8 nM.

Regarding `COc1ccc([C@H](c2ccc(Cl)cc2)[C@H](N)C(=O)Nc2cccc(F)c2CC[C@H]2CNC[C@H](C)N2S(=O)(=O)C2CC2)cn1` [Example 150, (βS)-4-chloro-N-(2-{2-[(2S,6S)-1-(cyclopropylsulfonyl)-6-methylpiperazin-2-yl]ethyl}-3-fluorophenyl)-β-(6-methoxypyridin-3-yl)-L-phenylalaninamide], the IC50 was found to be 26 nM.

With `COC(=O)N[C@H](C(=O)Nc1cccc(F)c1CC[C@H]1CNC[C@H](C)N1S(=O)(=O)C1CC1)[C@@H](c1ccc(Cl)cc1)c1ccc(OC)nc1` [Example 151, (βS)-4-chloro-N-(2-{2-[(2S,6S)-1-(cyclopropylsulfonyl)-6-methylpiperazin-2-yl]ethyl}-3-fluorophenyl)-Nα-(methoxycarbonyl)-β-(6-methoxypyridin-3-yl)-L-phenylalaninamide], the IC50 was 17 nM.

For `COC(=O)N[C@H](C(=O)Nc1cccc(F)c1CC[C@H]1CNC[C@@H](C)N1S(=O)(=O)C1CC1)[C@@H](c1ccc(Cl)cc1)c1ccc(OC)nc1` [Example 153, (βS)-4-chloro-N-(2-{2-[(2S,6R)-1-(cyclopropylsulfonyl)-6-methylpiperazin-2-yl]ethyl}-3-fluorophenyl)-Nα-(methoxycarbonyl)-β-(6-methoxypyridin-3-yl)-L-phenylalaninamide], the IC50 is 28 nM.

Consider `C[C@H]1CNC[C@H](CCc2c(F)cccc2NC(=O)[C@@H](N)[C@H](c2cccc(F)c2)c2cccc(Cl)c2)N1S(=O)(=O)c1ccccc1` [Example 154, (βR)-3-chloro-N-(3-fluoro-2-{2-[(2S,6S)-6-methyl-1-(phenylsulfonyl)piperazin-2-yl]ethyl}phenyl)-β-(3-fluorophenyl)-L-phenylalaninamide], for which the IC50 was determined as 65 nM.

On to `COC(=O)N[C@H](C(=O)Nc1cccc(F)c1CC[C@H]1CNC[C@H](C)N1S(=O)(=O)c1ccccc1)[C@H](c1cccc(F)c1)c1cccc(Cl)c1` [Example 155, (βR)-3-chloro-N-(3-fluoro-2-{2-[(2S,6S)-6-methyl-1-(phenylsulfonyl)piperazin-2-yl]ethyl}phenyl)-β-(3-fluorophenyl)-Nα-(methoxycarbonyl)-L-phenylalaninamide], for which the IC50 was 67 nM.

Consider `COc1ccc(S(=O)(=O)N2[C@@H](CCc3c(F)cccc3NC(=O)[C@@H](N)C(c3cccc(F)c3)c3cccc(F)c3)CNC[C@@H]2C)cc1` [Example 156, 3-fluoro-N-[3-fluoro-2-(2-{(2S,6S)-1-[(4-methoxyphenyl)sulfonyl]-6-methylpiperazin-2-yl}ethyl)phenyl]-β-(3-fluorophenyl)-L-phenylalaninamide], for which the IC50 came out at 14 nM.

As to `COC(=O)N[C@H](C(=O)Nc1cccc(F)c1CC[C@H]1CNC[C@H](C)N1S(=O)(=O)c1ccc(OC)cc1)C(c1cccc(F)c1)c1cccc(F)c1` [Example 157, 3-fluoro-N-[3-fluoro-2-(2-{(2S,6S)-1-[(4-methoxyphenyl)sulfonyl]-6-methylpiperazin-2-yl}ethyl)phenyl]-β-(3-fluorophenyl)-Nα-(methoxycarbonyl)-L-phenylalaninamide], the IC50 was found to be 7.3 nM.

Take `C[C@H]1CNC[C@H](CCc2c(F)cccc2NC(=O)[C@@H](N)C(c2cccc(F)c2)c2cccc(F)c2)N1S(=O)(=O)C1CC1` [Example 158, N-(2-{2-[(2S,6S)-1-(cyclopropylsulfonyl)-6-methylpiperazin-2-yl]ethyl}-3-fluorophenyl)-3-fluoro-β-(3-fluorophenyl)-L-phenylalaninamide]: the IC50 was determined as 75 nM.

Regarding `COC(=O)N[C@H](C(=O)Nc1cccc(F)c1CC[C@H]1CNC[C@H](C)N1S(=O)(=O)C1CC1)C(c1cccc(F)c1)c1cccc(F)c1` [Example 159, N-(2-{2-[(2S,6S)-1-(cyclopropylsulfonyl)-6-methylpiperazin-2-yl]ethyl}-3-fluorophenyl)-3-fluoro-β-(3-fluorophenyl)-Nα-(methoxycarbonyl)-L-phenylalaninamide], the IC50 was 42 nM.

Consider `C[C@@H]1CNC[C@H](CCc2c(F)cccc2NC(=O)[C@@H](N)[C@@H](c2ccc(Cl)cc2)C2CCOCC2)N1S(C)(=O)=O` [Example 160, (βR)-4-chloro-N-(3-fluoro-2-{2-[(2S,6R)-6-methyl-1-(methylsulfonyl)piperazin-2-yl]ethyl}phenyl)-β-(tetrahydro-2H-pyran-4-yl)-L-phenylalaninamide], for which the IC50 is 190 nM.

For `COc1ccc(S(=O)(=O)N2[C@@H](CCc3c(F)cccc3NC(=O)[C@@H](N)[C@H](c3cccc(F)c3)c3cccc(Cl)c3)CNC[C@@H]2C)cc1` [Example 162, (βR)-3-chloro-N-[3-fluoro-2-(2-{(2S,6S)-1-[(4-methoxyphenyl)sulfonyl]-6-methylpiperazin-2-yl}ethyl)phenyl]-β-(3-fluorophenyl)-L-phenylalaninamide], the IC50 was 22 nM.

For the compound `COC(=O)N[C@H](C(=O)Nc1cccc(F)c1CC[C@H]1CNC[C@H](C)N1S(=O)(=O)c1ccc(OC)cc1)[C@H](c1cccc(F)c1)c1cccc(Cl)c1` [Example 163, (βR)-3-chloro-N-[3-fluoro-2-(2-{(2S,6S)-1-[(4-methoxyphenyl)sulfonyl]-6-methylpiperazin-2-yl}ethyl)phenyl]-β-(3-fluorophenyl)-Nα-(methoxycarbonyl)-L-phenylalaninamide], the IC50 was 20 nM.

As for `COc1ccc([C@H](c2ccc(Cl)cc2)[C@H](N)C(=O)Nc2cccc(F)c2CC[C@H]2CNC[C@H](C)N2S(C)(=O)=O)cn1` [Example 164, (βS)-4-chloro-N-(3-fluoro-2-{2-[(2S,6S)-6-methyl-1-(methylsulfonyl)piperazin-2-yl]ethyl}phenyl)-β-(6-methoxypyridin-3-yl)-L-phenylalaninamide], the IC50 stood at 37 nM.

Take `COC(=O)N[C@H](C(=O)Nc1cccc(F)c1CC[C@H]1CNC[C@H](C)N1S(C)(=O)=O)[C@@H](c1ccc(Cl)cc1)c1ccc(OC)nc1` [Example 165, (βS)-4-chloro-N-(3-fluoro-2-{2-[(2S,6S)-6-methyl-1-(methylsulfonyl)piperazin-2-yl]ethyl}phenyl)-Nα-(methoxycarbonyl)-β-(6-methoxypyridin-3-yl)-L-phenylalaninamide]: the IC50 worked out at 17 nM.

Consider `C[C@H]1CNC[C@H](CCc2c(F)cncc2NC(=O)[C@@H](N)[C@@H](c2ccc(Cl)cc2)c2cccc(F)c2)N1S(=O)(=O)C1CC1` [Example 166, (βS)-4-chloro-N-(4-{2-[(2S,6S)-1-(cyclopropylsulfonyl)-6-methylpiperazin-2-yl]ethyl}-5-fluoropyridin-3-yl)-β-(3-fluorophenyl)-L-phenylalaninamide], for which the IC50 stood at 29 nM.

For `C[C@H]1CNC[C@H](CCc2c(F)cccc2NC(=O)[C@@H](N)[C@@H](c2ccc(Cl)cc2)c2cccc(F)c2)N1S(=O)(=O)C1CC1` [Example 167, (βS)-4-chloro-N-(2-{2-[(2S,6S)-1-(cyclopropylsulfonyl)-6-methylpiperazin-2-yl]ethyl}-3-fluorophenyl)-β-(3-fluorophenyl)-L-phenylalaninamide], the IC50 stood at 31 nM.

In the case of `COC(=O)N[C@H](C(=O)Nc1cccc(F)c1CC[C@H]1CNC[C@H](C)N1S(=O)(=O)C1CC1)[C@@H](c1ccc(Cl)cc1)c1cccc(F)c1` [Example 168, (βS)-4-chloro-N-(2-{2-[(2S,6S)-1-(cyclopropylsulfonyl)-6-methylpiperazin-2-yl]ethyl}-3-fluorophenyl)-β-(3-fluorophenyl)-Nα-(methoxycarbonyl)-L-phenylalaninamide], the IC50 came out at 19 nM.

Consider `C[C@@H]1CNC[C@H](CCc2c(F)cccc2NC(=O)[C@@H](N)[C@H](c2cccc(F)c2)c2cccc(Cl)c2)N1S(C)(=O)=O` [Example 169, (βR)-3-chloro-N-(3-fluoro-2-{2-[(2S,6R)-6-methyl-1-(methylsulfonyl)piperazin-2-yl]ethyl}phenyl)-β-(3-fluorophenyl)-L phenylalaninamide], for which the IC50 was 170 nM.

For `C[C@H]1CNC[C@H](CCc2c(F)cccc2NC(=O)[C@@H](N)C(c2cccc(F)c2)c2cccc(F)c2)N1S(C)(=O)=O` [Example 170, 3-fluoro-N-(3-fluoro-2-{2-[(2S,6S)-6-methyl-1-(methylsulfonyl)piperazin-2-yl]ethyl}phenyl)-β-(3-fluorophenyl)-L-phenylalaninamide], the IC50 was 60 nM.

As to `COC(=O)N[C@H](C(=O)Nc1cccc(F)c1CC[C@H]1CNC[C@H](C)N1S(C)(=O)=O)C(c1cccc(F)c1)c1cccc(F)c1` [Example 171, 3-fluoro-N-(3-fluoro-2-{2-[(2S,6S)-6-methyl-1-(methylsulfonyl)piperazin-2-yl]ethyl}phenyl)-β-(3-fluorophenyl)-Nα-(methoxycarbonyl)-L-phenylalaninamide], the IC50 is 26 nM.
